Patent publication US12202844B2, “MAP4K1 inhibitors” (Blueprint Medicines Corporation, priority 2021, dated 2025)

The compounds below were run against T1, MAP4K1 (HPK1) (Homo sapiens, UniProt Q92918) (assay: Inhibition of MAP4K1 biochemical enzymatic activity (EZReader 2 electrophoretic mobility shift)). Conditions: HPK1 (Invitrogen), S6K2tide 1.5 μM, 120 min; ATP 26 μM or 1000 μM (not given).
T1 construct: purchased Invitrogen
Description: MAP4K1 (HPK1) and relevant off-target enzymatic activity was monitored using the Perkin Elmer electrophoretic mobility shift technology platform—the EZReader 2. […] Within the linear, steady-state phase of the kinase enzymatic reaction, the mixed pool of phosphorylated (product) and non-phosphorylated (substrate) peptides was passed through the microfluidic system of the PerkinElmer EZ Reader 2, under an applied electric potential difference. The presence of the phosphate group on the product peptide provided a difference in mass and charge between that of the substrate peptide, resulting in a separation of the substrate and product pools in the sample (Perrin et al. 2010). As the product and substrate peptide mixture passes the lasers within the instrument, these pools are detected (λex=488 nm, λem=568 nm) and resolved as separate peaks. The ratio between these peaks reflects the activity of the compound at that concentration, in that well, under those conditions.
Inhibitors were dissolved in 100% DMSO at a stock concentration of 10 mM. A 100×, 10-point, 4-fold serial dilution of each inhibitor was created in 100% DMSO either manually or on a Hamilton STAR liquid handler, starting at a relevant concentration, usually 1 mM. A volume of 0.130 μL of each concentration was transferred to the relevant wells of a 384-well plate (Greiner 781 201) in duplicate using a TTPLabtech Mosquito nano-litre dispenser. Using a Multidrop Combi, the remaining constituents of the kinase reaction were added to the 130 nL of dosed compound as follows (see table below for final reaction details):
Enzyme activity assays at the ^APPKM for ATP or 1 mM ATP: In each well of a 384-well plate, 0.1-15 nM of untreated enzyme was incubated in a total of 13 μL of buffer (100 mM HEPES pH 7.5, 0.015% Brij 35, 10 mM MgCl2, 1 mM DTT) with 1.5 μM fluorescent peptid and 20-1000 μM ATP, at 25° C., for 60-180 minutes in the presence or absence of a dosed concentration series of compound (1% DMSO final concentration). The kinase reactions were stopped by the addition of 70 μl of Stop buffer (100 mM HEPES pH 7.5, 0.015% Brij 35, 35 mM EDTA and 0.2% of Coating Reagent 3 (Caliper Lifesciences)). The plates were read on a Caliper EZReader 2 as described above.

T1 sequence (Q92918 whole entry): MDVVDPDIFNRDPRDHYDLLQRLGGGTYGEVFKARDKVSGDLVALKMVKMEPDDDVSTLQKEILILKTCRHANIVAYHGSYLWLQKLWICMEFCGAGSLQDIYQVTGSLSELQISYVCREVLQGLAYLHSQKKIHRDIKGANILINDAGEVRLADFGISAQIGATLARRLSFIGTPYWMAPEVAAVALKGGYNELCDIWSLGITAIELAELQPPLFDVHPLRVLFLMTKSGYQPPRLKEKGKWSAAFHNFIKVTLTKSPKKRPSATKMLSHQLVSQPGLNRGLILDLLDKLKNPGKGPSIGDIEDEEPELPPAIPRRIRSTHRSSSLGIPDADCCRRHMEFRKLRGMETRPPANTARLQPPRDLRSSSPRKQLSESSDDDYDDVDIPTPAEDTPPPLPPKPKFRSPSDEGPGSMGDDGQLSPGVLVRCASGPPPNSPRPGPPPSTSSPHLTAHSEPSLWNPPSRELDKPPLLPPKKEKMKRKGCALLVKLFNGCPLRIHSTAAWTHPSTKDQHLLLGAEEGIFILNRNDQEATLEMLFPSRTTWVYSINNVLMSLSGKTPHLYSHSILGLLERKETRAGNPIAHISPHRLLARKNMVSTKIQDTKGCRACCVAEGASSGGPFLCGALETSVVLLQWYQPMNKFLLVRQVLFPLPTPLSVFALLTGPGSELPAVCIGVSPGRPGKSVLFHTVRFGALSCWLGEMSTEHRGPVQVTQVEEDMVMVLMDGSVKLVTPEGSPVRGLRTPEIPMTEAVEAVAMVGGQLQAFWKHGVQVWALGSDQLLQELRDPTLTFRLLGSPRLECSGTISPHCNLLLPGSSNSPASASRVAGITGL

Q: With `CCC[C@@](C)(N)c1cnc(O[C@H](C)C[C@@H](C)S(C)(=O)=O)c2cnc(Nc3ccc4c(n3)[C@@H](C)C(C)(C)OC4=O)cc12` (single isomer, unassigned) [Compound 142] as the compound, how does the IC50 read?
A: 0.2 nM

Q: With `CC[C@@](C)(N)c1cnc(O[C@@H](C)CCS(C)(=O)=O)c2cnc(Nc3ccc4c(n3)C3(CC3)[C@@H](C)OC4=O)cc12` (single isomer, unassigned) [Compound 147] as the compound, how does the IC50 read?
A: 0.46 nM

Q: For `CC[C@@](C)(N)c1cnc(O[C@H]2C[C@@H](S(C)(=O)=O)C2)c2cnc(Nc3ccc4c(n3)[C@@H](C)[C@@H](C)OC4=O)cc12` (single isomer, unassigned) [Compound 149], which IC50 is on record?
A: 0.25 nM

Q: `C[C@@H]1OC(=O)c2ccc(Nc3cc4c(C(C)(C)N)cnc(O[C@@H](C)C[C@@H]5CCCS5(=O)=O)c4cn3)nc2[C@H]1C` (single isomer, unassigned) [Compound 154] was tested. Which IC50 did it give?
A: 0.62 nM

Q: With `C[C@@H]1OC(=O)c2ccc(Nc3cc4c(C(C)(C)N)cnc(O[C@@H](C)C[C@@H]5CCCS5(=O)=O)c4cn3)nc2[C@H]1C` (single isomer, unassigned) [Compound 156] as the compound, how does the IC50 read?
A: 2.38 nM

Q: Which IC50 does the source give for `C[C@@H]1OC(=O)c2ccc(Nc3cc4c(C(C)(C)N)cnc(O[C@@H](C)C[C@@H]5CCCS5(=O)=O)c4cn3)nc2[C@H]1C` (single isomer, unassigned) [Compound 157] here?
A: 1.57 nM

Q: With `C[C@H](C[C@H]1CCCS1(=O)=O)Oc1ncc(C(C)(C)N)c2cc(Nc3ccc4c(n3)[C@@H](C)C(C)(C)OC4=O)ncc12` (single isomer, unassigned) [Compound 158] as the compound, how does the IC50 read?
A: 0.86 nM

Q: With `C[C@H](C[C@H]1CCCS1(=O)=O)Oc1ncc(C(C)(C)N)c2cc(Nc3ccc4c(n3)[C@@H](C)C(C)(C)OC4=O)ncc12` (single isomer, unassigned) [Compound 159] as the compound, how does the IC50 read?
A: 0.42 nM

Q: How did the IC50 turn out when `C[C@H](C[C@H]1CCCS1(=O)=O)Oc1ncc(C(C)(C)N)c2cc(Nc3ccc4c(n3)[C@@H](C)C(C)(C)OC4=O)ncc12` (single isomer, unassigned) [Compound 160] was run?
A: 1.61 nM

Q: Which IC50 does the source give for `C[C@H](C[C@H]1CCCS1(=O)=O)Oc1ncc(C(C)(C)N)c2cc(Nc3ccc4c(n3)[C@@H](C)C(C)(C)OC4=O)ncc12` (single isomer, unassigned) [Compound 161] here?
A: 0.94 nM

Q: How did the IC50 turn out when `COC[C@@](C)(N)c1cnc(O[C@H]2C[C@@H](S(C)(=O)=O)C2)c2cnc(Nc3ccc4c(n3)C3(CC3)[C@H](C)OC4=O)cc12` (single isomer, unassigned) [Compound 163] was run?
A: 0.22 nM

Q: For `COC[C@@](C)(N)c1cnc(O[C@H](C)C[C@@H](C)S(C)(=O)=O)c2cnc(Nc3ccc4c(n3)C3(CC3)[C@H](C)OC4=O)cc12` (single isomer, unassigned) [Compound 165], which IC50 is on record?
A: 1.15 nM

Q: How did the IC50 turn out when `CC[C@@](C)(N)c1cnc(O[C@H](C)CC[S@@+](C)[O-])c2cnc(Nc3ccc4c(n3)[C@@H](C)[C@H](C)OC4=O)cc12` (single isomer, unassigned) [Compound 166] was run?
A: 0.2 nM

Q: How did the IC50 turn out when `CC[C@@](C)(N)c1cnc(O[C@H](C)CC[S@+](C)[O-])c2cnc(Nc3ccc4c(n3)[C@@H](C)[C@H](C)OC4=O)cc12` (single isomer, unassigned) [Compound 167] was run?
A: 0.19 nM

Q: How did the IC50 turn out when `C[C@@H]1c2nc(Nc3cc4c(C(C)(C)N)cnc(OCCC[S@@](C)(=N)=O)c4cn3)ccc2C(=O)OC1(C)C` (single isomer, unassigned) [Compound 169] was run?
A: 0.6 nM

Q: For `C[C@@H]1c2nc(Nc3cc4c(C(C)(C)N)cnc(O[C@@H](CCS(C)(=O)=O)C(F)(F)F)c4cn3)ccc2C(=O)OC1(C)C` (single isomer, unassigned) [Compound 172], which IC50 is on record?
A: 1.86 nM

Q: For `C[C@@H]1c2nc(Nc3cc4c(C(C)(C)N)cnc(O[C@H](CCS(C)(=O)=O)C(F)(F)F)c4cn3)ccc2C(=O)OC1(C)C` (single isomer, unassigned) [Compound 173], which IC50 is on record?
A: 9.8 nM

Q: `C[C@@H]1OC(=O)c2ccc(Nc3cc4c(C(C)(C)N)cnc(O[C@@H](CCS(C)(=O)=O)C(F)(F)F)c4cn3)nc2[C@H]1C` (single isomer, unassigned) [Compound 174] was tested. Which IC50 did it give?
A: 5.35 nM

Q: `C[C@@H]1OC(=O)c2ccc(Nc3cc4c(C(C)(C)N)cnc(O[C@H](CCS(C)(=O)=O)C(F)(F)F)c4cn3)nc2[C@H]1C` (single isomer, unassigned) [Compound 175] was tested. Which IC50 did it give?
A: 23.3 nM

Q: For `CC[C@@](C)(N)c1cnc(O[C@H](C)C[C@@H](C)[S@@](C)(=N)=O)c2cnc(Nc3ccc4c(n3)C3(CC3)[C@@H](C)OC4=O)cc12` (single isomer, unassigned) [Compound 180], which IC50 is on record?
A: 3.03 nM

Q: For `CC[C@@](C)(N)c1cnc(O[C@@H](C)CC(C)(C)S(C)(=O)=O)c2cnc(Nc3ccc4c(n3)[C@@H](C)[C@H](C)OC4=O)cc12` (single isomer, unassigned) [Compound 184], which IC50 is on record?
A: 0.83 nM

Q: How did the IC50 turn out when `CC[C@@](C)(N)c1cnc(O[C@@H](C)CC(C)(C)S(C)(=O)=O)c2cnc(Nc3ccc4c(n3)[C@@H](C)[C@H](C)OC4=O)cc12` (single isomer, unassigned) [Compound 185] was run?
A: 0.22 nM

Q: Which IC50 does the source give for `CC[C@@](C)(N)c1cnc(O[C@H](C)CC(C)(C)[S@@](C)(=N)=O)c2cnc(Nc3ccc4c(n3)C(C)(C)[C@@H](C)OC4=O)cc12` (single isomer, unassigned) [Compound 187] here?
A: 2.2 nM

Q: With `CC[C@@](C)(N)c1cnc(O[C@H](C)CC(C)(C)[S@@](C)(=N)=O)c2cnc(Nc3ccc4c(n3)C(C)(C)[C@@H](C)OC4=O)cc12` (single isomer, unassigned) [Compound 188] as the compound, how does the IC50 read?
A: 0.96 nM

Q: How did the IC50 turn out when `CC[C@@](C)(N)c1cnc(O[C@H](C)CC(C)(C)[S@@](C)(=N)=O)c2cnc(Nc3ccc4c(n3)C(C)(C)[C@@H](C)OC4=O)cc12` (single isomer, unassigned) [Compound 189] was run?
A: 1.05 nM

Q: How did the IC50 turn out when `CC[C@@](C)(N)c1cnc(O[C@H](C)CC(C)(C)[S@@](C)(=N)=O)c2cnc(Nc3ccc4c(n3)C(C)(C)[C@@H](C)OC4=O)cc12` (single isomer, unassigned) [Compound 190] was run?
A: 5.1 nM

Q: `CC[C@@](C)(N)c1cnc(O[C@@H](C)CC(C)(C)S(C)(=O)=O)c2cnc(Nc3ccc4c(n3)C(C)(C)[C@H](C)OC4=O)cc12` (single isomer, unassigned) [Compound 191] was tested. Which IC50 did it give?
A: 3.67 nM

Q: Which IC50 does the source give for `CC[C@@](C)(N)c1cnc(O[C@@H](C)CC(C)(C)S(C)(=O)=O)c2cnc(Nc3ccc4c(n3)C(C)(C)[C@H](C)OC4=O)cc12` (single isomer, unassigned) [Compound 192] here?
A: 0.94 nM

Q: How did the IC50 turn out when `COC[C@@](C)(N)c1cnc(OCCCS(C)(=O)=O)c2cnc(Nc3ccc4c(n3)[C@@H](C)C(C)(C)OC4=O)cc12` (stereo in doubt) [Compound 179] was run?
A: 0.49 nM

Q: For `C[C@@H]1OC(=O)c2ccc(Nc3cc4c(C(C)(C)N)cnc(OC5CS(=O)(=O)C5)c4cn3)nc2[C@H]1C` [Compound 1], which IC50 is on record?
A: 0.26 nM

Q: With `CC(C)(N)c1cnc(O[C@H]2C[C@@H](S(C)(=O)=O)C2)c2cnc(Nc3ccc4c(n3)C(C)(C)OC4=O)cc12` [Compound 4] as the compound, how does the IC50 read?
A: 1.85 nM

Q: How did the IC50 turn out when `C[C@@H]1c2nc(Nc3cc4c(C(C)(C)N)cnc(OC5(C)CS(=O)(=O)C5)c4cn3)ccc2C(=O)OC1(C)C` [Compound 10] was run?
A: 0.12 nM

Q: For `C[C@@H]1c2nc(Nc3cc4c(C(C)(C)N)cnc(OCC5CS(=O)(=O)C5)c4cn3)ccc2C(=O)OC1(C)C` [Compound 12], which IC50 is on record?
A: 0.56 nM

Q: With `C[C@@H]1OC(=O)c2ccc(Nc3cc4c(C(C)(C)N)cnc(O[C@H]5C[C@H](S(C)(=O)=O)C5)c4cn3)nc2[C@H]1C` [Compound 14] as the compound, how does the IC50 read?
A: 0.28 nM

Q: Which IC50 does the source give for `C[C@@H]1c2nc(Nc3cc4c(C(C)(C)N)cnc(OCCCS(C)(=O)=O)c4cn3)ccc2C(=O)OC1(C)C` [Compound 17] here?
A: 0.15 nM

Q: Which IC50 does the source give for `CC[C@@](C)(N)c1cnc(OCCCS(C)(=O)=O)c2cnc(Nc3ccc4c(n3)[C@@H](C)[C@H](C)OC4=O)cc12` [Compound 20] here?
A: 0.13 nM

Q: For `CC[C@@](C)(N)c1cnc(OCCCS(C)(=O)=O)c2cnc(Nc3ccc4c(n3)C(C)(C)COC4=O)cc12` [Compound 22], which IC50 is on record?
A: 0.3 nM

Q: With `CC[C@@](C)(N)c1cnc(OCCCS(C)(=O)=O)c2cnc(Nc3ccc4c(n3)CC(C)(C)OC4=O)cc12` [Compound 23] as the compound, how does the IC50 read?
A: 0.3 nM

Q: Which IC50 does the source give for `CC[C@@](C)(N)c1cnc(O[C@H]2C[C@@H](S(C)(=O)=O)C2)c2cnc(Nc3ccc4c(n3)CC(C)(C)OC4=O)cc12` [Compound 32] here?
A: 0.18 nM

Q: For `CC[C@@](C)(N)c1cnc(O[C@H]2C[C@@H](S(C)(=O)=O)C2)c2cnc(Nc3ccc4c(n3)C(C)(C)COC4=O)cc12` [Compound 33], which IC50 is on record?
A: 0.21 nM

Q: How did the IC50 turn out when `CC[C@@](C)(N)c1cnc(OCCCS(C)(=O)=O)c2cnc(Nc3ccc4c(n3)C3(CC3)C(C)(C)OC4=O)cc12` [Compound 44] was run?
A: 0.19 nM

Q: How did the IC50 turn out when `CC[C@@](C)(N)c1cnc(O[C@H](C)CCS(C)(=O)=O)c2cnc(Nc3ccc4c(n3)CC(C)(C)OC4=O)cc12` [Compound 49] was run?
A: 0.31 nM
